From patent publication US12162888B2, “Carboxamides as ubiquitin-specific protease inhibitors” (Valo Early Discovery, Inc., priority 2018, dated 2024)

Legend:
[1] = tested on: human eosinophil EOL-1 (DSMZ no. ACC 386) cells; test: In Vivo Xenograft Studies, Example A-2; settings: EOL-1 cells subcutaneous in flank of mice; first test compound 50-120 mg/kg orally or subcutaneously, second test compound 40 or 60 mg/kg orally twice per day; versus vehicle (FIG. 2)
Experimental: Example A-2: In Vivo Xenograft Studies
Mice were injected subcutaneously in the flank with human eosinophil EOL-1 (DSMZ no. ACC 386) cells (NCI). Injections with cells (circles, FIG. 2A) and with vehicle alone (triangles, FIG. 2B) were monitored, and when tumors reached a critical size (for example, about 1000 mm^3), mice were randomized into treatment groups, including vehicle control and reference standard groups. The groups, as shown in FIG. 2B are as follows: Group 1, vehicle administered orally every other day; Group 2, first test compound ((S)-amino-N-(5-fluoro-7-(piperazin-1-yl)chroman-3-yl)-6-methylthieno[2,3-b]pyridine-2-carboxamide) at 120 mg/kg, administered orally every other day; Group 3, first test compound at 80 mg/kg, administered orally every other day; Group 4, first test compound at 80 mg/kg, administered subcutaneously twice per day, every other day thereafter; Group 5, first test compound at 60 mg/kg, administered subcutaneously twice per day for four consecutive days, with no administration for three days. […] The mice were weighed and tumors measured using vernier calipers on indicated days. Tumor volume was calculated according to the formula (length×width^2)/2.

[2] = biological target: T1, USP28 (His-tagged USP28-FL-mammalian) (Homo sapiens, UniProt Q96RU2); test: Ubiquitin-Rhodamine 110 Assay for USP28 Activity, Example A-1(a); assay type: biochemical; settings: Ubiquitin-Rhodamine 110 biochemical assay, read-out: USP28 A-1(a) IC50 range
T1 construct: Expression of USP28 (1-1077)-TEV-6*His (pTT5 vector) was carried out in Expi293f cells; made in house; host or cells: Expi293F cells (pTT5 vector)
T1 sequence (Q96RU2 1-1077): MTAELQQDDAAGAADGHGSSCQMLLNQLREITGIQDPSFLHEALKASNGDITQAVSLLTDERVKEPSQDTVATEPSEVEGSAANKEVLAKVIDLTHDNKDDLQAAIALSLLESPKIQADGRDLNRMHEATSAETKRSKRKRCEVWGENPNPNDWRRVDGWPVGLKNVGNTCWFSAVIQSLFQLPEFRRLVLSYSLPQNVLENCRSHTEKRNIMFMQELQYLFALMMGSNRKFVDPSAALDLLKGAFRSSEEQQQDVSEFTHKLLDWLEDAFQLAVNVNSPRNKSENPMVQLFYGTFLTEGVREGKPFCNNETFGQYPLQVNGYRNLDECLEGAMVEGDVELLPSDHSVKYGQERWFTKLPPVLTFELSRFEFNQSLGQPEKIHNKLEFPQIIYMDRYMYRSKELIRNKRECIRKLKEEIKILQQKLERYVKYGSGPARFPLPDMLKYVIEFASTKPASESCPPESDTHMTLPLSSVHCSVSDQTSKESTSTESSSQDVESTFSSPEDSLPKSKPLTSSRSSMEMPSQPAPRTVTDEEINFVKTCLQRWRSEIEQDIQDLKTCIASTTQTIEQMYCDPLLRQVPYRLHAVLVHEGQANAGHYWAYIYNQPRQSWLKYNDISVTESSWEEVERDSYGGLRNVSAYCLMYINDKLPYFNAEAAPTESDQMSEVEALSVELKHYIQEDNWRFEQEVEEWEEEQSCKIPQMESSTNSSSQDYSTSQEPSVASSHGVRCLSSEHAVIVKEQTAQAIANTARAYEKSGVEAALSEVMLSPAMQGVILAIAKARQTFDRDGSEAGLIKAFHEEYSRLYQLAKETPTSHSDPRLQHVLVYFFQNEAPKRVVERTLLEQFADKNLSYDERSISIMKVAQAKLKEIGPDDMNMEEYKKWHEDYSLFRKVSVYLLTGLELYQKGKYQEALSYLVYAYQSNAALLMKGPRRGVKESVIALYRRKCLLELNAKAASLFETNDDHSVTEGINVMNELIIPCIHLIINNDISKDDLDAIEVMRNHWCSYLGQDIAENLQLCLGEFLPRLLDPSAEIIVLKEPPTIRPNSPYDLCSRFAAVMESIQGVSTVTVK
Method in brief: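 Full-length His-tagged human USP28 (1-1077), expressed in Expi293F cells, was used at […] with 25 nM Ub-Rh110 (<<Km) in 20 mM Tris pH 8.0, 3 mM BME, 0.03% BGG and 0.01% Triton X-100. Compounds (25 μM-1.3 nM, 10-point) were preincubated with enzyme for 30 min, and the reaction ran 45 min at room temperature before a citric acid stop. Fluorescence was read at 485/535 nm, and IC50 came from 4-parameter fits of percent inhibition.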

[3] = Ubiquitin-Rhodamine 110 Assay for USP25 Activity, Example A-3; assay type: biochemical; settings: Ubiquitin-Rhodamine 110 biochemical assay, Example A-1(b); read-out: USP28 A-1(b) IC50 range
Method in brief: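 USP25-His6 ([…] final as stated) preincubated 30 min with compound (10-point, 25 μM to 1.3 nM), then Ub-Rh110 at 25 nM (<<Km) added in pH 8.0 Tris buffer with BME, BGG and Triton X-100. Reaction stopped after 45 min at room temperature with 10 mM citric acid; fluorescence read at 485/535 nm.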

[4] = biological target: T2, USP28 (USP28-5(1-1077)-TEV-6*His; LifeSensors) (Homo sapiens, UniProt Q96RU2); test: Ubiquitin-Rhodamine 110 Assay for USP28 Activity, Example A-1(b); assay type: biochemical
T2 construct: construct USP28 (USP28-5(1-1077)-TEV-6*His; LifeSensors); TEV cleavage site (C); 6xHis (C); purchased LifeSensors
T2 sequence (Q96RU2 1-1077): T1 sequence (Q96RU2 1-1077)
Experimental: Example A-1(b): Biochemical Assay: Ubiquitin-Rhodamine 110 Assay for USP28 Activity
Each assay was performed in a final volume of 20 μL in assay buffer containing 20 mM Tris-HCl (pH 8.0, (1M Tris-HCl, pH 8.0 solution; Corning 46-031-CM)), 2 mM CaCl2 (1M Calcium Chloride solution; Sigma #21114) 2 mM BME (2-Mercaptoethanol; Sigma 63689-25ML-F), 0.01% Prionex (0.22 μM filtered, Sigma #G-0411), and 0.01% Triton X-100. Stock compound solutions were stored at −20° C. as 10 mM in DMSO. Up to 1 month prior to the assay, 2 mM test compounds were pre-dispensed into assay plates (Black, low volume; Corning #3820) and frozen at −20° C. Prestamped assay plates were allowed to come to room temperature on the day of the assay. For the screen, 100 nL of 2 mM was pre-dispensed for a final screening concentration of 10 μM (DMSO(fc)=0.5%). […] Plates were incubated stacked for 90 minutes at room temperature before fluorescence was read on the Envision (Excitation at 485 nm and Emission at 535 nm; Perkin Elmer) or on the PheraSTAR (Excitation at 485 nm and Emission at 535 nm; BMG Labtech).
For follow-up studies, each assay was performed in a final volume of 15 μL in assay buffer containing 20 mM Tris-HCl (pH 8.0, (1M Tris-HCl, pH 8.0 solution; Corning 46-031-CM)), 3 mM BME (2-Mercaptoethanol; Sigma 63689-25ML-F), 0.03% BGG (0.22 μM filtered, Sigma, G7516-25G), and 0.01% Triton X-100 (Sigma, T9284-10L). Nanoliter quantities of either an 8-point or 10-point, 3-fold serial dilution in DMSO was pre-dispensed into assay plates (Perkin Elmer, ProxiPlate-384 F Plus, #) for a final test concentration of either 25 μM to 11 nM or 25 μM to 1.3 nM, respectively. Enzyme USP28, construct USP28 (USP28-5(1-1077)-TEV-6*His; LifeSensors) concentration and incubation times were optimized for the maximal signal-to-background while maintaining initial velocity conditions at a fixed substrate concentration. The final concentration of the enzyme in the assay was […]. Final substrate (Ub-Rh110; Ubiquitin-Rhodamine 110, R&D Systems #U-555) concentration was 25 nM with [Ub-Rh110]<<Km. 5 μL of 2× enzyme was added to assay plates (pre-stamped with compound) preincubated with USP28 for 30 minutes and then 5 μL of 2× Ub-Rh110 was added to assay plates. Plates were incubated stacked for 20 minutes at room temperature before 5 μL of stop solution was added (final concentration of 10 mM citric acid (Sigma, 251275-500G)). Fluorescence was read on the Envision (Excitation at 485 nm and Emission at 535 nm; Perkin Elmer) or on the PheraSTAR (Excitation at 485 nm and Emission at 535 nm; BMG Labtech).
For assay formats Example A-1(a), A-1(b), and A-2, data were reported as percent inhibition compared with control wells based on the following equation: % inh=1−((FLU−AveLow)/(AveHigh−AveLow)) where FLU=measured Fluorescence, AveLow=average Fluorescence of no enzyme control (n=16), and AveHighh=average Fluorescence of DMSO control (n=16). IC50 values were determined by curve fitting of the standard 4 parameter logistic fitting algorithm included in the Activity Base software package: IDBS XE Designer Model 205. Data is fitted using the Levenburg Marquardt algorithm.

| SMILES | tumor growth (tumor volume, (length×width^2)/2) [1] | IC50 [2] | IC50 [3] | USP28 A-1(b) IC50 range [4] |
| --- | --- | --- | --- | --- |
| CO[C@H]1CN(c2ccc3c(n2)CC[C@H](NC(=O)c2sc4nc(C)cnc4c2N)C3)C[C@@H]1N [second test compound, 7-amino-N-[(6S)-2-[(3S,4S)-3-amino-4-methoxypyrrolidin-1-yl]-5,6,7,8-tetrahydroquinolin-6-yl]-3-methylthieno[2,3-b]pyrazine-6-carboxamide] | slowing of tumor growth over time | – | – | – |
| Cc1nc2sc(C(=O)N[C@H]3CCc4nc(N5C[C@@H](CF)[C@H](N)C5)ccc4C3)c(N)c2cc1F [Example 507, 3-amino-N-[(6S)-2-[(3S,4R)-3-amino-4-(fluoromethyl)pyrrolidin-1-yl]-5,6,7,8-tetrahydroquinolin-6-yl]-5-fluoro-6-methylthieno[2,3-b]pyridine-2-carboxamide] | – | 50 to 200 nM | 200 to 2000 nM | – |
| Cc1ccc2c(N)c(C(=O)N[C@H]3CCc4nc(N5CC[C@@H](N)[C@@H]5C(F)F)ccc4C3)sc2n1 [Example 478, 3-amino-N-[(6S)-2-[(2R,3R)-3-amino-2-(difluoromethyl)pyrrolidin-1-yl]-5,6,7,8-tetrahydroquinolin-6-yl]-6-methylthieno[2,3-b]pyridine-2-carboxamide] | – | 50 to 200 nM | > 2000 nM | – |
| CCN[C@H]1CN(c2ccc3c(n2)CC[C@H](NC(=O)c2sc4nc(C)ccc4c2N)C3)C[C@@H]1COC [Example 476, 3-amino-N-[(6S)-2-[(3R,4S)-3-(ethylamino)-4-(methoxymethyl)pyrrolidin-1-yl]-5,6,7,8-tetrahydroquinolin-6-yl]-6-methylthieno[2,3-b]pyridine-2-carboxamide] | – | 50 to 200 nM | > 2000 nM | – |
| Cc1ccc2c(N)c(C(=O)N[C@H]3CCc4nc(N5CC[C@H](N)[C@H]5C(F)F)ccc4C3)sc2n1 [Example 479, 3-amino-N-[(6S)-2-[(2S,3S)-3-amino-2-(difluoromethyl)pyrrolidin-1-yl]-5,6,7,8-tetrahydroquinolin-6-yl]-6-methylthieno[2,3-b]pyridine-2-carboxamide] | – | 1 to 50 nM | 50 to 200 nM | – |
| CCn1ccc2cc(C(=O)N[C@H]3CCc4cc(N5CC6CCC(C5)N6)ccc4C3)nnc21 (single isomer, unassigned) [Example 11-24] | – | – | – | + (“+”L>2 μM) |
| CCN[C@@H]1CN(c2ccc3c(n2)CC[C@H](NC(=O)c2sc4nc(C)ccc4c2N)C3)C[C@H]1COC [Example 477, 3-amino-N-[(6S)-2-[(3S,4R)-3-(ethylamino)-4-(methoxymethyl)pyrrolidin-1-yl]-5,6,7,8-tetrahydroquinolin-6-yl]-6-methylthieno[2,3-b]pyridine-2-carboxamide] | – | 50 to 200 nM | > 2000 nM | – |
| Cc1ccc2c(N)c(C(=O)N[C@H]3COc4cc(N5C[C@@H]6CNC[C@H]6C5)ccc4C3)sc2n1 [Example 43, 3-amino-N-((R)-7-((3aR,6aR)-hexahydropyrrolo[3,4-c]pyrrol-2(1H)-yi)chroman-3-yl)-6-methylthieno[2,3-b]pyridine-2-carboxamide] | – | – | – | + (“+”L>2 μM) |
| CCn1ccc2cc(C(=O)N[C@@H]3CCc4cc(N5CC6CCC(C5)N6)ccc4C3)nnc21 (single isomer, unassigned) [Example 11-23] | – | – | – | + (“+”L>2 μM) |
| Cc1ccc2c(N)c(C(=O)N[C@@H]3COc4cc(N5CCNCC5)cc(F)c4C3)sc2n1 [first test compound, (S)-amino-N-(5-fluoro-7-(piperazin-1-yl)chroman-3-yl)-6-methylthieno[2,3-b]pyridine-2-carboxamide] | slowing of tumor growth over time | – | – | – |
